Experimental data taken from patent US20240116985A1, “STAPLED PEPTIDES AND METHODS THEREOF” (priority 2020, published 2024).
Values after ≈ are worked out from the molar mass of the structure shown. Like-named read-outs stand apart in the source and are kept apart here.

Experiments:
[1] = molecular target: T1, full-length beta-Catenin (Uniprot ID P35222) (Homo sapiens, UniProt P35222); experiment: Fluorescence polarization IC50 (beta-catenin / 5FAM-TCF4 10-53 competition); assay type: binding
T1 construct: 10 nM full-length beta-Catenin (Uniprot ID P35222)
T1 sequence (P35222 1-781): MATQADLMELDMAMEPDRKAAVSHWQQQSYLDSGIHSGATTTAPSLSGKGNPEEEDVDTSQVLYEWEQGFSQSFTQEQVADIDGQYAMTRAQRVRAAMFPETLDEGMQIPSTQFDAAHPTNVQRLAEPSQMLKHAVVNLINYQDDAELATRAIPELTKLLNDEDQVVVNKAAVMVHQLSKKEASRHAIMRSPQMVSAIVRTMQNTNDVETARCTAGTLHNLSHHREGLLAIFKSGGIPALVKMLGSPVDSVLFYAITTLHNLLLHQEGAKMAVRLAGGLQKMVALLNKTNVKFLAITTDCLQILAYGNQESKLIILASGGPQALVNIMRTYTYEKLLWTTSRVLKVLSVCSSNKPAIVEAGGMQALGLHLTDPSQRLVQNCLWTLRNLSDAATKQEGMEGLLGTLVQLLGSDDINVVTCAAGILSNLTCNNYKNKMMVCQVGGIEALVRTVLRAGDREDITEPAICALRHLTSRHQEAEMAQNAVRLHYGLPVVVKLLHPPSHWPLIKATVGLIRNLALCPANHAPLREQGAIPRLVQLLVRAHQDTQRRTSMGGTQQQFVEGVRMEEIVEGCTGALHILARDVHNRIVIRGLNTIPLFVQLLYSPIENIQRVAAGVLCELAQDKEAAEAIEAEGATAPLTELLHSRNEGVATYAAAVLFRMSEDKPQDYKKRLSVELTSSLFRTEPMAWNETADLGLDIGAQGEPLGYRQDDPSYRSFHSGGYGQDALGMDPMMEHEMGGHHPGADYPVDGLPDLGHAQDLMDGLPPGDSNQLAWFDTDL

[2] = molecular target: T2, beta-catenin/TCF4 engagement (Homo sapiens, UniProt P35222); experiment: Nano-BRET target engagement assay (B-cat-Halo & TCF4-Luc in HEK293 cells); assay type: cell-based; conditions: read-out: NanoBRET Abs IC50
T2 construct: expressed in transfected cells; host or cells: HEK293
T2 sequence (P35222 1-781): T1 sequence (P35222 1-781)

Solubility in PBS = assay type: physicochemical
How it was run: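 Read-out is the HPLC peak area of the supernatant from ultracentrifuged PBS solution, scaled against a 50 μM peptide DMSO injection; value reported as [(PBS area)/(DMSO area)]*50 uM.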

CHI Log D procedure = assay type: physicochemical; conditions: for chromatographic logD: pH 7.4, CHI Log D; for CHI Log D: pH 7.4
[3] = fluorescence polarization, read-out: beta-Catenin FP IC50

| Compound | IC50 ([1]; read-out: beta-Catenin FP IC50) [nM] | IC50 ([2]; absolute IC50) [µM] | Solubility (Solubility in PBS; Solubility (uM)) [µM] | chromatographic logD (CHI Log D procedure) | IC50 [2] [µM] | IC50 [1, 3] [nM] | IC50 ([1]; read-out: FP EC50) [nM] | Solubility (Solubility in PBS) [µM] | CHI Log D (CHI Log D procedure) |
| --- | --- | --- | --- | --- | --- | --- | --- | --- | --- |
| CC(=O)N1CCC[C@]12CC=CCCCC1(CCCC=CCCCOC(=O)N3CC[C@@](C(=O)N[C@@H](Cc4ccsc4)C(=O)N[C@@H](Cc4csc5ccccc45)C(=O)N[C@@H](Cc4c[nH]cn4)C(N)=O)(C3)NC(=O)[C@H](CC(N)=O)NC(=O)[C@H](Cc3ccccc3)NC(=O)[C@H](C)NC(=O)[C@H](C)NC(=O)[C@H](CCCNC(N)=O)NC(=O)[C@H](CC(=O)O)NC1=O)NC(=O)[C@H](CC(C)(C)C)NC(=O)[C@H](CC(=O)O)NC2=O (stereo partly drawn) [I-841, Ac-PL3-Asp-Npg-B5-Asp-Cit-Ala-Ala-Phe-Asn-PyrS2-3Thi-BztA-His-NH2] | 12 | 34.4 | 14 (≈ 27.6 µg/mL) | 2.26 |  |  |  |  |  |
| CC(=O)N1CCC[C@]12CC=CCCCC1(CCCC=CCCCOC(=O)N3CC[C@@](C(=O)N[C@@H](Cc4ccsc4)C(=O)N[C@@H](Cc4csc5ccccc45)C(=O)N[C@@H](Cc4c[nH]cn4)C(N)=O)(C3)NC(=O)[C@H](CC(N)=O)NC(=O)[C@H](Cc3ccccc3)NC(=O)[C@H](C)NC(=O)[C@H](C)NC(=O)[C@H](CC(N)=O)NC(=O)[C@H](CC(=O)O)NC1=O)NC(=O)[C@H](CC(C)(C)C)NC(=O)[C@H](CC(=O)O)NC2=O (stereo partly drawn) [I-837, Ac-PL3-Asp-Npg-B5-Asp-Asn-Ala-Ala-Phe-Asn-PyrS2-3Thi-BztA-His-NH2] | 5 | 23.8 | 14 (≈ 27 µg/mL) | 2.3 |  |  |  |  |  |
| CC(=O)N1CCC[C@]12CC=CCCCC1(CCCC=CCCCCCC[C@@](C)(C(=O)N[C@@H](Cc3ccsc3)C(=O)N[C@@H](Cc3csc4ccccc34)C(=O)N[C@@H](CCC(N)=O)C(N)=O)NC(=O)[C@H](CC(N)=O)NC(=O)[C@H](Cc3ccccc3)NC(=O)[C@H](C)NC(=O)[C@H](C)NC(=O)[C@H](CC(=O)O)NC(=O)[C@H](CC(=O)O)NC1=O)NC(=O)[C@H](CC(C)C)NC(=O)[C@H](CC(=O)O)NC2=O (stereo partly drawn) [I-681, Ac-PL3-Asp-Leu-B5-Asp-Asp-Ala-Ala-Phe-Asn-S8-3Thi-BztA-Gln-NH2] |  | 25.1 |  |  |  | 12 | 12 | 48 (≈ 89.3 µg/mL) | 2.273 |

More lines, now with the values ahead:

| IC50 ([1]; read-out: beta-Catenin FP IC50) [nM] | IC50 ([2]; absolute IC50) [µM] | Solubility (Solubility in PBS; Solubility (uM)) [µM] | chromatographic logD (CHI Log D procedure) | IC50 [2] [µM] | IC50 [1, 3] [nM] | IC50 ([1]; read-out: FP EC50) [nM] | Solubility (Solubility in PBS) [µM] | CHI Log D (CHI Log D procedure) | Compound |
| --- | --- | --- | --- | --- | --- | --- | --- | --- | --- |
| 32 |  | 49 (≈ 97 µg/mL) | 2.42 | 26.8 |  |  |  |  | CC(=O)N1CCC[C@]12CC=CCCCC1(CCCC=CCCCOC(=O)N3CC[C@@](C(=O)N[C@@H](Cc4ccccc4)C(=O)N[C@@H](Cc4csc5ccccc45)C(=O)N[C@@H](CCC(N)=O)C(N)=O)(C3)NC(=O)[C@H](CO)NC(=O)[C@H](Cc3ccc(C(F)(F)F)cc3)NC(=O)[C@H](C)NC(=O)[C@H](C)NC(=O)[C@H](CC(=O)O)NC(=O)[C@H](CC(=O)O)NC1=O)NC(=O)[C@H](CC1CCCCC1)NC(=O)[C@H](CC(=O)O)NC2=O (stereo partly drawn) [I-1126, Ac-PL3-Asp-Cha-B5-Asp-Asp-Ala-Ala-4F3MeF-Ser-PyrS2-Phe-BztA-Gln-NH2] |
|  | 17.8 |  |  |  | 7 | 7 | 44 (≈ 85 µg/mL) | 2.013 | CC(=O)N1CCC[C@]12CC=CCCCC1(CCCC=CCCCOC(=O)N3CC[C@@](C(=O)N[C@@H](Cc4ccsc4)C(=O)N[C@@H](Cc4csc5ccccc45)C(=O)N[C@@H](CCC(N)=O)C(N)=O)(C3)NC(=O)[C@H](CC(N)=O)NC(=O)[C@H](Cc3ccccc3)NC(=O)[C@H](C)NC(=O)[C@H](C)NC(=O)[C@H](CCC(=O)O)NC(=O)[C@H](CC(=O)O)NC1=O)NC(=O)[C@H](CC(C)(C)C)NC(=O)[C@H](CC(=O)O)NC2=O (stereo partly drawn) [I-690, Ac-PL3-Asp-Npg-B5-Asp-Glu-Ala-Ala-Phe-Asn-PyrS2-3Thi-BztA-Gln-NH2] |
| 18 |  | 47 (≈ 91.2 µg/mL) | 2.18 | 5.4 |  |  |  |  | COc1cccc(C[C@@H]2NC(=O)[C@H](C)NC(=O)[C@H](C)NC(=O)[C@H](CC(=O)O)NC(=O)[C@H](CC(=O)O)NC(=O)C3(CCCC=CCCCOC(=O)N4CC[C@@](C(=O)N[C@@H](Cc5ccccc5)C(=O)N[C@@H](Cc5csc6ccccc56)C(=O)N[C@@H](CCC(N)=O)C(N)=O)(C4)NC(=O)[C@H](CC(C)C)NC2=O)CCCC=CC[C@]2(CCCN2C(C)=O)C(=O)N[C@@H](CC(=O)O)C(=O)N[C@@H](CC(C)(C)C)C(=O)N3)c1 (stereo partly drawn) [I-1127, Ac-PL3-Asp-Npg-B5-Asp-Asp-Ala-Ala-3OMeF-Leu-PyrS2-Phe-BztA-Gln-NH2] |
